Measured values from patent publication US4701205A, “Chemical tobacco sucker control” (Chevron Research Company, priority 1986, dated 1987).
Where two headings read alike, the source gives them in different places.

Columns and labels:
[1] = test system: tobacco suckers (axillary buds); experiment: Tobacco sucker control, foliar paint (expanded leaves only); type: in vivo; details: for inhibition at 400 µg/mL: Nicotiana tabacum, read-out: Percent Bud Inhibition Top Three Nodes; for Sucker control when applied only to the leaves (systemic action), in words: applied only to the leaves of the tobacco plant
Description: (§1) Twenty-four hours before treatment, the tobacco plants are "topped", removing the top 15 cm of the plant. Any plants which are tending to lean or bend in the pot were staked, and all pots labeled. Three to five replicates were used per treatment. A 5% wt. stock solution of each test compound dissolved in acetone containing a small amount of non-ionic emulsifier was prepared. The stock solution was appropriately diluted with deionized water containing 0.625 g of emulsifier per liter of water, to the desired spray solution concentration.
(§2) Plants were sprayed to point of run-off with a pressure atomizer, making sure that the stem, leaf axils, and leaves were all wet thoroughly with the solution. 30 to 35 ml of solution were used per plant. This was checked by recording volume of solution in sprayer reservoir before and after treatment. After spraying, the plants were incubated for 18 to 23 days in a greenhouse maintained at 70°-80° F. using standing water capilliary irrigation. The plants were uniformly fertilized once per week with a standard house plant fertilizer. After the incubation period, the plants were evaluated at various times for sucker control. To make this evaluation, the axillary buds at the top three nodes (primary suckers) of each plant were compared to those of the check, and a visual estimation of percent inhibition was made wherein 0=no inhibition of axillary buds as compared with check and 100=no axillary buds at top three nodes. The growth of secondary suckers (buds at lower nodes) when present, were also measured.
(§3) In this example, the title compound of Example 1 was tested side-by-side with maleic hydrazide for tobacco sucker control (inhibition), when applied as a soil drench and also when applied only to the leaves of the plant. The same general procedure as described in Example 3 was used with the exception that the test compound was applied only to the expanded leaves for foliage treatment (foliar paint) and the compound was drenched only on the soil in the pot for soil drench treatment. The average results of these tests are given in the following table, wherein 0=no inhibition and 100=complete inhibition, i.e., no axillary buds.

[2] = test system: tobacco suckers (axillary buds); experiment: Tobacco sucker control, soil drench treatment; type: in vivo; details: for inhibition at 400 µg/mL: Nicotiana tabacum, read-out: Percent Bud Inhibition Top Three Nodes
Description: as §1, §2, §3

[3] = test system: tobacco suckers (axillary buds), Var. Glurk; experiment: Tobacco sucker control, spray to run-off on topped plants, Var. Glurk; type: in vivo, Nicotiana tabacum; details: for inhibition at 200 µg/mL / inhibition at 400 µg/mL / inhibition at 800 µg/mL / inhibition at 1600 µg/mL: Nicotiana tabacum; for Mean # of Nodes with Secondary Suckers / Mean Sucker Length (cm): Table 3
Description: In this example, the title compound of Example 1 (i.e., 2-[1-(3-trans-chloroallyloxyamino)ethylidene]-5-(2-ethylthiopropyl)cyclohexane-1,3-dione was tested side-by-side with 2-[1-(3-trans-chloroallyloxyamino)butylidene]-5-(2-ethylthio-propyl)-cyclohexane-1,3-dione for their ability to control (retard or prevent) lateral axillary buds in tobacco plants.
as §1
as §2, with “To make this evaluation, the axillary buds at the top three nodes (primary suckers) of each plant were compared to those of the check, and a visual estimation of percent inhibition was made wherein 0=no inhibition of axillary buds as compared with check and 100=no axillary buds at top three nodes.” left out
(§4) In some instances, comparisons were also made on the basis of sucker length.
(§5) The results are reported as an average of the replicates used in each test.
(§6) In this example, the title compound of Example 1 was tested side-by-side with maleic hydrazide ("C-2") with respect to axillary bud control in two varities of tobacco plants. These tests were conducted following the same general procedure as described in Example 3 hereinabove using the dosage concentrations given in the tables hereinbelow. […]

[4] = test system: tobacco suckers (axillary buds), Var. 12 × L8; experiment: whole plant or invertebrate; type: in vivo, Nicotiana tabacum; details: for inhibition at 200 µg/mL / inhibition at 400 µg/mL / inhibition at 800 µg/mL: Nicotiana tabacum, Table 2, read-out: Percent Bud Inhibition Top Two Nodes; for Mean # of Nodes with Secondary Suckers / Mean Sucker Length (cm): Table 3
Description: as §1
as §2, with “To make this evaluation, the axillary buds at the top three nodes (primary suckers) of each plant were compared to those of the check, and a visual estimation of percent inhibition was made wherein 0=no inhibition of axillary buds as compared with check and 100=no axillary buds at top three nodes.” left out
as §4, §5, §6

[5] = 504 h, Table I, 400 mg/l spray, three weeks after treatment, read-out: Percent Bud Inhibition
[6] = 504 h, Table I, 800 mg/l spray, three weeks after treatment, read-out: Percent Bud Inhibition
[7] = 504 h, Table I, 1600 mg/l spray, three weeks after treatment, read-out: Percent Bud Inhibition
[8] = 1008 h, Table I, 400 mg/l spray, six weeks after treatment, read-out: Percent Bud Inhibition Top two Nodes
[9] = 1008 h, Table I, 800 mg/l spray, six weeks after treatment, read-out: Percent Bud Inhibition Top two Nodes
[10] = 1008 h, Table I, 1600 mg/l spray, six weeks after treatment, read-out: Percent Bud Inhibition Top two Nodes
[11] = 200 mg/l spray, six weeks after treatment
[12] = 400 mg/l spray, six weeks after treatment
[13] = 800 mg/l spray, six weeks after treatment
[14] = Table I, 400 mg/l spray, six weeks after treatment
[15] = Table I, 400 mg/l spray, three weeks after treatment
[16] = Table I, 800 mg/l spray, six weeks after treatment
[17] = Table I, 800 mg/l spray, three weeks after treatment
[18] = Table I, 1600 mg/l spray, six weeks after treatment
[19] = Table I, 1600 mg/l spray, three weeks after treatment

CCSC(C)CC1CC(=O)C(=C(C)NOC/C=C/Cl)C(=O)C1 (stereo not drawn) [Compound 1, Trans-2-[1-(3-chloroallyloxyamino)-ethylidene]-5-(2-ethylthiopropyl)-cyclohexane-1,3-dione]
Observation on suckers at basal nodes (footnote a) ([1]; Foliar Paint, 400 mg/l, six weeks after treatment): some suckers appearing at basal nodes | inhibition at 400 µg/mL ([1]; 504 h, Foliar Paint (Leaves Only), 400 mg/l, three weeks after treatment): 98% | inhibition at 400 µg/mL ([1]; 1008 h, Foliar Paint (Leaves Only), 400 mg/l, six weeks after treatment): 99% | Sucker control when applied only to the leaves (systemic action), in words [1]: highly effective | inhibition at 400 µg/mL ([2]; 504 h, Soil Drench (30 ml/pot), 400 mg/l, three weeks after treatment): 100% | inhibition at 400 µg/mL ([2]; 1008 h, Soil Drench (30 ml/pot), 400 mg/l, six weeks after treatment): 100% | Sucker control when applied as a soil drench (systemic action), in words [2]: highly effective | inhibition at 200 µg/mL ([3]; 504 h, Table 2, 200 mg/l spray, three weeks after treatment, read-out: Percent Bud Inhibition Top Two Nodes): 100% | inhibition at 400 µg/mL ([3]; 504 h, Table 2, 400 mg/l spray, three weeks after treatment, read-out: Percent Bud Inhibition Top Two Nodes): 100% | inhibition at 800 µg/mL ([3]; 504 h, Table 2, 800 mg/l spray, three weeks after treatment, read-out: Percent Bud Inhibition Top Two Nodes): 100% | inhibition at 400 µg/mL [3, 5]: 100% | inhibition at 800 µg/mL [3, 6]: 100% | inhibition at 1600 µg/mL [3, 7]: 100% | inhibition at 200 µg/mL ([3]; 1008 h, Table 2, 200 mg/l spray, six weeks after treatment, read-out: Percent Bud Inhibition Top Two Nodes): 100% | inhibition at 400 µg/mL ([3]; 1008 h, Table 2, 400 mg/l spray, six weeks after treatment, read-out: Percent Bud Inhibition Top Two Nodes): 100% | inhibition at 800 µg/mL ([3]; 1008 h, Table 2, 800 mg/l spray, six weeks after treatment, read-out: Percent Bud Inhibition Top Two Nodes): 100% | inhibition at 400 µg/mL [3, 8]: 100% | inhibition at 800 µg/mL [3, 9]: 100% | inhibition at 1600 µg/mL [3, 10]: 100% | Mean # of Nodes with Secondary Suckers [3, 11]: 2.5 | Mean Sucker Length (cm) [3, 11]: 30.8 cm | Mean # of Nodes with Secondary Suckers [3, 12]: 1.5 | Mean Sucker Length (cm) [3, 12]: 9.6 cm | Mean # of Nodes with Secondary Suckers [3, 13]: 0.5 | Mean Sucker Length (cm) [3, 13]: 10.0 cm | Number of Secondary Suckers (axillary buds at lower nodes) [3, 14]: 2.3 | Total Sucker Length [3, 14]: 24 cm | Number of Usable Leaves [3, 15]: 6.7 | Number of Secondary Suckers (axillary buds at lower nodes) [3, 16]: 1.3 | Total Sucker Length [3, 16]: 7 cm | Number of Usable Leaves [3, 17]: 6.7 | Number of Secondary Suckers (axillary buds at lower nodes) [3, 18]: 0 | Total Sucker Length [3, 18]: 0 cm | Number of Usable Leaves [3, 19]: 6.3 | inhibition at 200 µg/mL ([4]; 504 h, 200 mg/l spray, three weeks after treatment): 95% | inhibition at 400 µg/mL ([4]; 504 h, 400 mg/l spray, three weeks after treatment): 93% | inhibition at 800 µg/mL ([4]; 504 h, 800 mg/l spray, three weeks after treatment): 95% | inhibition at 200 µg/mL ([4]; 1008 h, 200 mg/l spray, six weeks after treatment): 86.3% | inhibition at 400 µg/mL ([4]; 1008 h, 400 mg/l spray, six weeks after treatment): 96.9% | inhibition at 800 µg/mL ([4]; 1008 h, 800 mg/l spray, six weeks after treatment): 96.8% | Mean # of Nodes with Secondary Suckers [4, 11]: 4.0 | Mean Sucker Length (cm) [4, 11]: 24.0 cm | Mean # of Nodes with Secondary Suckers [4, 12]: 2.6 | Mean Sucker Length (cm) [4, 12]: 45.3 cm | Mean # of Nodes with Secondary Suckers [4, 13]: 2.3 | Mean Sucker Length (cm) [4, 13]: 17.4 cm

CCCC(NOC/C=C/Cl)=C1C(=O)CC(CC(C)SCC)CC1=O (stereo not drawn) [Compound C-1, 2-[1-(3-trans-chloroallyloxyamino)butylidene]-5-(2-ethylthio-propyl)-cyclohexane-1,3-dione]
inhibition at 400 µg/mL [3, 5]: 0% | inhibition at 800 µg/mL [3, 6]: 0% | inhibition at 1600 µg/mL [3, 7]: 7% | inhibition at 400 µg/mL [3, 8]: 0% | inhibition at 800 µg/mL [3, 9]: 0% | inhibition at 1600 µg/mL [3, 10]: 0% | Number of Secondary Suckers (axillary buds at lower nodes) [3, 14]: 0 | Total Sucker Length [3, 14]: 0 cm | Number of Usable Leaves [3, 15]: 7.3 | Number of Secondary Suckers (axillary buds at lower nodes) [3, 16]: 0 | Total Sucker Length [3, 16]: 0 cm | Number of Usable Leaves [3, 17]: 7.7 | Number of Secondary Suckers (axillary buds at lower nodes) [3, 18]: 0 | Total Sucker Length [3, 18]: 0 cm | Number of Usable Leaves [3, 19]: 6.0

CCC(C)Nc1c([N+](=O)[O-])cc(C(C)(C)C)cc1[N+](=O)[O-] (centres unmarked) [Compound C-3, 4-(1,1-dimethylethyl)-N--(1-methyl-propyl)-2,6-dinitrobenzenamine]
inhibition at 400 µg/mL ([1]; foliar, 1008 h): 3% | Sucker control when applied only to the leaves (systemic action), in words [1]: ineffective | inhibition at 400 µg/mL ([2]; soil, 1008 h): 27% | Sucker control when applied as a soil drench (systemic action), in words [2]: ineffective
